Laboratory results: US8372598B2 (priority 2010, dated 2013)

Columns and labels:
Co-2164 = assay: microbe, parasite or virus in culture; assay type: cell-based, Clostridium
Co-5673 = assay: microbe, parasite or virus in culture; assay type: cell-based, Clostridium
mutant 10256 = assay: Growth on agar plates with varying NaCl; assay type: cell-based, Clostridium; conditions: for CFU/ml: 48 hours
mutant 11303 = assay: Growth on agar plates with varying NaCl; assay type: cell-based, Clostridium; conditions: for CFU/ml: 48 hours
strain Co-9064 = assay: MIC for NaCl; assay type: cell-based, Clostridium species; conditions: NaCl MIC determination
strain Co-1533 = assay: MIC for NaCl; assay type: cell-based, Clostridium species; conditions: NaCl MIC determination
[1] = tested on: parent Clostridium strain; assay: Growth on agar plates with varying NaCl; assay type: cell-based; conditions: for CFU/ml: 48 hours
mutant 10277 = assay: Growth on agar plates with varying NaCl; assay type: cell-based, Clostridium; conditions: for CFU/ml: 48 hours
mutant 11301 = assay: Growth on agar plates with varying NaCl; assay type: cell-based, Clostridium; conditions: for CFU/ml: 48 hours
[2] = tested on: mutants of Co-9064 selected as in Example 1; assay: Salt MIC / growth on NaCl plates, salt selection mutants as a group; assay type: cell-based, Clostridium
strain Co-6232 = assay: MIC for NaCl; assay type: cell-based, Clostridium species; conditions: NaCl MIC determination
[3] = tested on: mutants of Co-9064 selected as in Example 1; conditions: grown at increasing concentrations of butanol, FIGS. 2A and 2B
parent = conditions: OD600, parent
[4] = Clostridium, 40 min, read-out: Survival (% of control)

CCOS(C)(=O)=O [EMS, ethyl methane sulfonate]
Survival (count) (Co-2164): 5.8 × 10^6 (14%) | higher survival rate in comparison to Co-5673 (Co-2164): 10% | activity at 30 µg/mL (Co-2164; [4]): 14% | Survival (count) (Co-5673; 30 μg/ml EMS, 40 minutes, 32° C., Co-5673): 3.8 × 10^6 | activity at 30 µg/mL (Co-5673; [4]): 4%

[Cl-].[Na+] [NaCl, sodium chloride]
CFU/ml (mutant 10256; NaCl 350 mM): lawn | CFU/ml (mutant 10256; NaCl 400 mM): lawn | CFU/ml (mutant 10256; NaCl 425 mM): 480 CFU/ml | CFU/ml (mutant 10256; NaCl 450 mM): 20 CFU/ml | CFU/ml (mutant 10256; NaCl 475 mM): 0 CFU/ml | grew on plates containing up to (mutant 10256; NaCl plates, mutant 10256): 450 mM | CFU/ml (mutant 11303; NaCl 350 mM): lawn | CFU/ml (mutant 11303; NaCl 400 mM): lawn | CFU/ml (mutant 11303; NaCl 425 mM): 800 CFU/ml | CFU/ml (mutant 11303; NaCl 450 mM): 10 CFU/ml | CFU/ml (mutant 11303; NaCl 475 mM): 0 CFU/ml | grew on plates containing up to (mutant 11303; NaCl plates, mutant 11303): 450 mM | highest concentration at which growth was observed (strain Co-9064): 300 mM | highest concentration at which growth was observed (strain Co-1533): 275 mM | CFU/ml ([1]; NaCl 350 mM): 6000 CFU/ml | CFU/ml ([1]; NaCl 400 mM): 0 CFU/ml | CFU/ml ([1]; NaCl 425 mM): 0 CFU/ml | CFU/ml ([1]; NaCl 450 mM): 0 CFU/ml | CFU/ml ([1]; NaCl 475 mM): 0 CFU/ml | grew on plates containing up to ([1]; NaCl plates, parent strain): 325 mM | no growth at this NaCl concentration and higher ([1]; solid medium, parent): ≥ 400 mM | CFU/ml (mutant 10277; NaCl 350 mM): lawn | CFU/ml (mutant 10277; NaCl 400 mM): lawn | CFU/ml (mutant 10277; NaCl 425 mM): 2930 CFU/ml | CFU/ml (mutant 10277; NaCl 450 mM): 150 CFU/ml | CFU/ml (mutant 10277; NaCl 475 mM): 0 CFU/ml | grew on plates containing up to (mutant 10277; NaCl plates, mutant 10277): 450 mM | CFU/ml (mutant 11301; NaCl 350 mM): lawn | CFU/ml (mutant 11301; NaCl 400 mM): lawn | CFU/ml (mutant 11301; NaCl 425 mM): 220 CFU/ml | CFU/ml (mutant 11301; NaCl 450 mM): 30 CFU/ml | CFU/ml (mutant 11301; NaCl 475 mM): 0 CFU/ml | grew on plates containing up to (mutant 11301; NaCl plates, mutant 11301): 450 mM | increase of salt tolerance (salt MIC) compared to the parent strain ([2]; mutants versus parent): more than 100 mM | growth up to ([2]; solid medium, four of the mutants): 450 mM | highest concentration of salt at which growth was observed (strain Co-6232): 325 mM

n-butanol
butanol tolerance compared to the parent strain [3]: improved butanol tolerance | % improvement (mutant #1): 20.89% | % of added n-butanol (v/v) at 50% inhibition (mutant #1): 1.18 % (v/v) | % of added n-butanol (v/v) at 50% inhibition (parent): 0.98 % (v/v) | % improvement (mutant #2): 69.96% | % of added n-butanol (v/v) at 50% inhibition (mutant #2): 1.66 % (v/v)
